Legend:
cancer cells = conditions: cell and mouse xenograft models; Grant et al. 2012; cited from earlier work
[1] = test system: embryonic kidney cell line (293T); test: Cell growth inhibition and apoptosis induction, embryonic kidney cell line; assay type: cell-based; conditions: for growth inhibition and apoptosis-inducing effects: 0.05-10 μM, 0-96 hours; for growth inhibition and apoptosis-inducing effects (cell images, MTT assay, FIG. 6): compared to the untreated control, 48 hours images, 96 hours MTT
Method: (§1) An embryonic kidney cell line (293T), a breast cancer cell line (MDA-MB-231), and colon cancer cell lines (HCT116 and HT29) were inoculated in a 96-well plate at a density of 3,000 cells/well, and 50 μL of a culture fluid was added thereto. The resulting mixture was cultured for an hour under 37° C./5% CO2 conditions. Each of the peptides prepared in Example 3 was added at an increasing concentration of 0.05, 1, 2, 3 and 10 μM to the well plate inoculated with each of the cell lines, and the resulting mixture was cultured for 0, 24, 48, 72 and 96 hours under 37° C./5% CO2 conditions. When the culture was completed, the cells were observed and their morphological changes were imaged using an inverted phase contrast microscope.

[2] = test system: colon cancer cell line HT29; test: Cell growth inhibition and apoptosis induction, colon cancer cell line HT29; assay type: cell-based; conditions: for growth inhibition and apoptosis-inducing effects: 0.05-10 μM, 0-96 hours; for growth inhibition and apoptosis-inducing effects (cell images, MTT assay, FIG. 6): compared to the untreated control, 48 hours images, 96 hours MTT
Method: as §1

[3] = test system: colon cancer cell line HCT116; test: Cell growth inhibition and apoptosis induction, colon cancer cell line HCT116; assay type: cell-based; conditions: for growth inhibition and apoptosis-inducing effects: 0.05-10 μM, 0-96 hours; for growth inhibition and apoptosis-inducing effects (cell images, MTT assay, FIG. 6): compared to the untreated control, 48 hours images, 96 hours MTT
Method: as §1

[4] = test system: breast cancer cell line (MDA-MB-231); test: Cell growth inhibition and apoptosis induction, breast cancer cell line; assay type: cell-based; conditions: for growth inhibition and apoptosis-inducing effects: 0.05-10 μM, 0-96 hours; for growth inhibition and apoptosis-inducing effects (cell images, MTT assay, FIG. 6): compared to the untreated control, 48 hours images, 96 hours MTT
Method: as §1

breast cancer cells = test: Growth inhibition and apoptosis in breast cancer cells; assay type: cell-based; conditions: compared with Peptide 5-2C
liver cancer cells = test: Growth inhibition and apoptosis in liver cancer cells; assay type: cell-based; conditions: compared with Peptide 5-2C
colon cancer cells = test: Growth inhibition and apoptosis in colon cancer cells; assay type: cell-based; conditions: compared with Peptide 5-2C
kidney-derived cells = test: Growth inhibition and apoptosis in kidney-derived cells; assay type: cell-based; conditions: compared with Peptide 5-2C
[5] = test system: liver cancer cell line (Hep3B); test: Cell growth inhibition and apoptosis, liver cancer cell line (MTT, CCK, Crystal Violet); assay type: cell-based; conditions: Hep3B treated once with peptide; compared to 5-2C-treated group
Text: The peptides were used to analyze effects on cell growth inhibition and apoptosis in the liver cancer cell line (Hep3B). FIGS. […] 8C and 8D graphically show the growth inhibition and apoptosis-inducing effects of the respective peptides at different concentrations. […] Therefore, it can be seen that the peptide of SEQ ID NO: 1 according to the present invention is a peptide having a sequence composed of an optimized number of amino acids to have anticancer activity.

leukemia cells = test: Growth inhibition and apoptosis in leukemia cells; assay type: cell-based; conditions: compared with Peptide 5-2C
various cells = test: IC50 in various cells (MTT, FIG. 16); assay type: cell-based; conditions: compared with Peptide 5-2C

Compound: CCOc1ccccc1C1CC(=O)Nc2cc3c(cc21)OCO3 (centres unmarked) [FQI1, Factor Quinolinone Inhibitor 1]
- inhibition of cancer cells versus normal cells (cancer cells): successful in inhibiting only the cancer cells without exerting any influence on normal cells

Compound: Ac-NYPQRcrgdkgpdc-amide [Peptide 5-2-51C]
- growth inhibition and apoptosis-inducing effects [1]: exhibited growth inhibition and apoptosis-inducing effects
- growth inhibition and apoptosis-inducing effects (cell images, MTT assay, FIG. 6) [1]: superior growth inhibition and apoptosis-inducing effects
- growth inhibition and apoptosis-inducing effects [2]: exhibited growth inhibition and apoptosis-inducing effects
- growth inhibition and apoptosis-inducing effects (cell images, MTT assay, FIG. 6) [2]: superior growth inhibition and apoptosis-inducing effects
- growth inhibition and apoptosis-inducing effects [3]: exhibited growth inhibition and apoptosis-inducing effects
- growth inhibition and apoptosis-inducing effects (cell images, MTT assay, FIG. 6) [3]: superior growth inhibition and apoptosis-inducing effects
- growth inhibition and apoptosis-inducing effects [4]: exhibited growth inhibition and apoptosis-inducing effects
- growth inhibition and apoptosis-inducing effects (cell images, MTT assay, FIG. 6) [4]: superior growth inhibition and apoptosis-inducing effects

Compound: Ac-PQRcrgdkgpdc-amide [Peptide 5-2-32C]
- growth inhibition and apoptosis-inducing effects [4]: no growth inhibition and apoptosis-inducing effects at all

Compound: Ac-YPQRPcrgdkgpdc-amide [Peptide 5-2-52C]
- growth inhibition and apoptosis-inducing effects [1]: exhibited growth inhibition and apoptosis-inducing effects
- growth inhibition and apoptosis-inducing effects (cell images, MTT assay, FIG. 6) [1]: superior growth inhibition and apoptosis-inducing effects
- growth inhibition and apoptosis-inducing effects [2]: exhibited growth inhibition and apoptosis-inducing effects
- growth inhibition and apoptosis-inducing effects (cell images, MTT assay, FIG. 6) [2]: superior growth inhibition and apoptosis-inducing effects
- growth inhibition and apoptosis-inducing effects [3]: exhibited growth inhibition and apoptosis-inducing effects
- growth inhibition and apoptosis-inducing effects (cell images, MTT assay, FIG. 6) [3]: superior growth inhibition and apoptosis-inducing effects
- growth inhibition and apoptosis-inducing effects [4]: exhibited growth inhibition and apoptosis-inducing effects
- growth inhibition and apoptosis-inducing effects (cell images, MTT assay, FIG. 6) [4]: superior growth inhibition and apoptosis-inducing effects

Compound: Ac-YPQRcrgdkgpdc-amide [Peptide 5-2-4C]
- growth inhibition and apoptosis (breast cancer cells): a tendency very similar to Peptide 5-2C
- growth inhibition and apoptosis (liver cancer cells): a tendency very similar to Peptide 5-2C
- growth inhibition and apoptosis (colon cancer cells): a tendency very similar to Peptide 5-2C
- growth inhibition and apoptosis-inducing effects [1]: exhibited growth inhibition and apoptosis-inducing effects
- growth inhibition and apoptosis-inducing effects (cell images, MTT assay, FIG. 6) [1]: superior growth inhibition and apoptosis-inducing effects
- growth inhibition and apoptosis-inducing effects [2]: exhibited growth inhibition and apoptosis-inducing effects
- growth inhibition and apoptosis-inducing effects (cell images, MTT assay, FIG. 6) [2]: superior growth inhibition and apoptosis-inducing effects
- growth inhibition and apoptosis (kidney-derived cells): a tendency very similar to Peptide 5-2C
- growth inhibition and apoptosis-inducing effects [3]: exhibited growth inhibition and apoptosis-inducing effects
- growth inhibition and apoptosis-inducing effects (cell images, MTT assay, FIG. 6) [3]: superior growth inhibition and apoptosis-inducing effects
- growth inhibition and apoptosis-inducing effects [4]: exhibited growth inhibition and apoptosis-inducing effects
- growth inhibition and apoptosis-inducing effects (cell images, MTT assay, FIG. 6) [4]: superior growth inhibition and apoptosis-inducing effects
- change in IC50 values observed for 3 days [5]: steadily decreasing over 3 days, a level of which was highly similar to that of Peptide 5-2C
- growth inhibition and apoptosis (leukemia cells): a tendency very similar to Peptide 5-2C
- IC50 value at 48 hours (various cells): very similar to that of Peptide 5-2C

Compound: Ac-YPQcrgdkgpdc-amide [Peptide 5-2-31C]
- growth inhibition and apoptosis-inducing effects [4]: no growth inhibition and apoptosis-inducing effects at all

Compound: CRGDKGPDC [iRGD, reference compound]
- growth inhibition and apoptosis-inducing effects [4]: no growth inhibition and apoptosis-inducing effects at all
